Measurements as given in ChEMBL document CHEMBL5365501, “Brain-penetrant cyanoindane and cyanotetralin inhibitors of G2019S-LRRK2 kinase activity” (Bioorg Med Chem Lett, 2023).
pIC50: −log10 of the molar value.

Experiments:
[1] = target: T1, Leucine-rich repeat serine/threonine-protein kinase 2 (Homo sapiens, UniProt Q5S007, G2019S); assay: Inhibition of LRRK2 G2019S mutant (unknown origin) using LRRKtide as substrate pre-incubated for 15 min and measured after 1 hrs by HTRF assay
[2] = test system: MDR1 (P-gp); assay: Efflux ratio of permeability across basolateral to apical side over apical to basolateral side in dog MDCKII-MDR1 cells; assay type: ADME, cell-based, Canis lupus familiaris; conditions: MDCK-MDR1
[3] = Stability in rat liver microsomes assessed as half life at 0.5 uM incubated up to 45 min in the presence of NADPH regenerating system by LC MS/MS analysis; assay type: ADME, Microsome
[4] = Stability in human liver microsomes assessed as half life at 0.5 uM incubated up to 45 min in the presence of NADPH regenerating system by LC MS/MS analysis; assay type: ADME, Microsome
[5] = target: T1, Leucine-rich repeat serine/threonine-protein kinase 2; assay: Inhibition of phosphorylated human LRRK2 G2019S mutant at S935 in human HEK293 cells incubated for 2 hrs; assay type: cell-based
[6] = target: T1, Leucine-rich repeat serine/threonine-protein kinase 2; assay: Inhibition of human LRRK2 G2019S mutant phosphorylation at S1292 in human HEK293 cells incubated for 2 hrs; assay type: cell-based

T1 sequence (Q5S007 whole entry G2019S): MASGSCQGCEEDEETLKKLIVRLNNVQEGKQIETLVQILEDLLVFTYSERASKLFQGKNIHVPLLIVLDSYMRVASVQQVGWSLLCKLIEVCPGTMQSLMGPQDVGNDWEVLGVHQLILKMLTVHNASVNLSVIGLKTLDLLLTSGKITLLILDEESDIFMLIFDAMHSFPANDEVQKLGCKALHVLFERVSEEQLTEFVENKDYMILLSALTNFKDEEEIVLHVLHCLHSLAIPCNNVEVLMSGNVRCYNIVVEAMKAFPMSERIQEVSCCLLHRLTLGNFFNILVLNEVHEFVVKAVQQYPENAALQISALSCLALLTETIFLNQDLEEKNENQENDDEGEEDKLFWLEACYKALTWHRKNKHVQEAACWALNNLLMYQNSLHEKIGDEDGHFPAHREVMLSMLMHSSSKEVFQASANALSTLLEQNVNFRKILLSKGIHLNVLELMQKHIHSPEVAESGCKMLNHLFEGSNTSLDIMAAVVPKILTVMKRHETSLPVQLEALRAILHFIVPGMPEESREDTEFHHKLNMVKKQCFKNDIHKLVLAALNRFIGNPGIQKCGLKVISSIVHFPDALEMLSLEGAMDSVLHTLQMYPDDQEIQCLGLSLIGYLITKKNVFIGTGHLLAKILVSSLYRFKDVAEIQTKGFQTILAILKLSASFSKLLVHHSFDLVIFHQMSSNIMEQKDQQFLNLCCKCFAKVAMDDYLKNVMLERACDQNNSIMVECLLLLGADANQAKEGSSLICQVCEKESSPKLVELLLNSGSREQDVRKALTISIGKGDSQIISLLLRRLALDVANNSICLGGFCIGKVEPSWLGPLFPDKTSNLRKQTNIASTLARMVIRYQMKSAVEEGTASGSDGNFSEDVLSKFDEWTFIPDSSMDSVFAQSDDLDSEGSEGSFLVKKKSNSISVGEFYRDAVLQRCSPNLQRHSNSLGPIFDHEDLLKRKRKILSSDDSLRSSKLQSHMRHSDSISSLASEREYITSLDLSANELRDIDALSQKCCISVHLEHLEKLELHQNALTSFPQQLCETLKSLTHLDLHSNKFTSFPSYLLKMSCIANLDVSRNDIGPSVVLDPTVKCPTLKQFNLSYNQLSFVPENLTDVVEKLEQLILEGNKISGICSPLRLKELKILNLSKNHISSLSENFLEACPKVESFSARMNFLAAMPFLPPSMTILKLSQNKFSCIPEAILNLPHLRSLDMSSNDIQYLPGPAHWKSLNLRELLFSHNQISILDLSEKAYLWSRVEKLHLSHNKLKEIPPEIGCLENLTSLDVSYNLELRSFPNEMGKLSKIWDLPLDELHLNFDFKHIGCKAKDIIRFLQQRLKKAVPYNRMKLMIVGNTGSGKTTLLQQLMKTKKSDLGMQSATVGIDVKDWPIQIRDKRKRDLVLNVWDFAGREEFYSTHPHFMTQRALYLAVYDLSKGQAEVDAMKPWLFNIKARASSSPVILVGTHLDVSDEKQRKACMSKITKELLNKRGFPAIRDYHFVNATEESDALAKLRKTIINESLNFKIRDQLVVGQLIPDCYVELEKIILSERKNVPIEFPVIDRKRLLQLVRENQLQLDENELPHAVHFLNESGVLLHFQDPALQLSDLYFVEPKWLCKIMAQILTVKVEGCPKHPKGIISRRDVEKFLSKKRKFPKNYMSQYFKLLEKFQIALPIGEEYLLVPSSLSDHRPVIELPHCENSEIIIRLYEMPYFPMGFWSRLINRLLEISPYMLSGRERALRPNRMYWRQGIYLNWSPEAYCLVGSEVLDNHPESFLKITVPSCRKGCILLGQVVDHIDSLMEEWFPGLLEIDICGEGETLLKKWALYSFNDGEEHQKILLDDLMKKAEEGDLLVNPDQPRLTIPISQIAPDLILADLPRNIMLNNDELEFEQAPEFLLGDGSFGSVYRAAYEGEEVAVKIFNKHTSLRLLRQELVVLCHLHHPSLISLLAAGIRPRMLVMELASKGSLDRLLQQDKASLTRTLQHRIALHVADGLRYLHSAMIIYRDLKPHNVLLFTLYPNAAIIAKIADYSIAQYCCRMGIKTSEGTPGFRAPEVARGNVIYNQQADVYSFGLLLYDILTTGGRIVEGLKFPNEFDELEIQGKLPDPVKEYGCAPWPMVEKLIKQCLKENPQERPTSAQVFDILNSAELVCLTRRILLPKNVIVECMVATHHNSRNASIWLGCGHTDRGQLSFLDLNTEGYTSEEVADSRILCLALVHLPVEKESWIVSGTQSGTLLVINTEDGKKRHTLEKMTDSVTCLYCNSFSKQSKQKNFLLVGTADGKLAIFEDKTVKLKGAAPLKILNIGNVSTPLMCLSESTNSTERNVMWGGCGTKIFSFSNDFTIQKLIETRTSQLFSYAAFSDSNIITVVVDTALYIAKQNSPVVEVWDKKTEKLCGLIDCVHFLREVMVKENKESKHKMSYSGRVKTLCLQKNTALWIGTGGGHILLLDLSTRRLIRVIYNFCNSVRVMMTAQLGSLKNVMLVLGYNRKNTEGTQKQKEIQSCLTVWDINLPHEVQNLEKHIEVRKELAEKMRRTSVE

Row | pIC50 [1] | Compound | further results
1 | 7.39 | N#Cc1ccc(C(=O)Nc2ccc3[nH]nc(-c4ccoc4)c3c2)cc1 | efflux ratio [2]: 1.9
2 | 7.01 | COCc1ccc(C(=O)Nc2ccc3[nH]nc(-c4ccoc4)c3c2)cc1 | 
3 | 7.13 | O=C(Nc1ccc2[nH]nc(-c3ccoc3)c2c1)c1nc2cnccc2s1 | 
4 | 7.31 | CS(=O)(=O)c1ccc(C(=O)Nc2ccc3[nH]nc(-c4ccoc4)c3c2)cc1 | 
5 | 7.21 | Cc1n[nH]c2ccc(O[C@@H]3CCc4cc(C#N)ccc43)cc12 | 
6 | 8.52 | CC1=C(C(=O)Nc2ccc3[nH]nc(-c4ccccc4)c3c2)C(C)(C)n2nnnc2N1C | 
7 | 5.26 | N#Cc1ccc2c(c1)CCN(c1ccc3[nH]nc(C4CC4)c3c1)C2=O | 
8 | < 5.12 | N#Cc1ccc2c(c1)C(=O)N(c1ccc3[nH]nc(C4CC4)c3c1)C2=O | 
9 | 6.76 | O=C(Nc1ccc2[nH]nc(-c3ccoc3)c2c1)c1cnc2cnccc2c1 | 
10 | 7.96 | N#Cc1ccc2c(c1)CC[C@@H]2Nc1ccc2[nH]nc(-c3ccoc3)c2c1 | half-life at 0.5 µM [3]: 54 min; efflux ratio [2]: 1.8; half-life at 0.5 µM [4]: 25 min; pIC50 [5]: 7.02; pIC50 [6]: 7.24
11 | 6.60 | CN(C)Cc1ccc(C(=O)Nc2ccc3[nH]nc(-c4ccoc4)c3c2)cc1 | 
12 | 7.85 | N#Cc1ccc2c(c1)[C@@H](Nc1ccc3[nH]nc(Br)c3c1)CCC2 | 
13 | 8.85 | N#Cc1ccc2c(c1)CCC[C@@H]2Oc1ccc2[nH]nc(-c3ccnc(N4CCOCC4)c3)c2c1 | 
14 | 8.55 | Cc1n[nH]c2ccc(O[C@H]3CCCc4cc(C#N)ccc43)cc12 | half-life at 0.5 µM [3]: 18 min; efflux ratio [2]: 1.3; half-life at 0.5 µM [4]: 35 min; pIC50 [5]: 6.86; pIC50 [6]: 7.21
15 | 6.10 | N#Cc1ccc(C(=O)Nc2ccc3[nH]nc(C4CC4)c3c2)cc1 | 
16 | 9.05 | N#Cc1ccc2c(c1)CCC[C@@H]2Nc1ccc2[nH]nc(-c3cnco3)c2c1 | 
17 | > 9.70 | N#Cc1ccc2c(c1)CCC[C@@H]2Oc1ccc2[nH]nc(-c3cnco3)c2c1 | half-life at 0.5 µM [3]: 42 min; efflux ratio [2]: 1.7; half-life at 0.5 µM [4]: 28 min; pIC50 [5]: 8.21; pIC50 [6]: 8.46
18 | 7.89 | Cn1ncc2cc(C(=O)Nc3ccc4[nH]nc(-c5ccoc5)c4c3)ccc21 | efflux ratio [2]: 9.2
19 | 7.46 | CC1=C(C(=O)Nc2ccc3[nH]ncc3c2)Cn2nnnc2N1C | 
20 | 6.21 | N#Cc1ccc2c(c1)CN(c1ccc3[nH]nc(C4CC4)c3c1)C2=O | 
21 | 9.40 | N#Cc1ccc2c(c1)CC[C@@H]2Oc1ccc2[nH]nc(-c3cnco3)c2c1 | half-life at 0.5 µM [3]: 53 min; efflux ratio [2]: 2.2; half-life at 0.5 µM [4]: 61 min; pIC50 [5]: 7.57; pIC50 [6]: 8.08
22 | 7.85 | Cc1n[nH]c2ccc(O[C@H]3CCc4cc(C#N)ccc43)cc12 | 
23 | 7.20 | N#Cc1ccc2c(c1)CC[C@H]2Nc1ccc2[nH]nc(-c3ccoc3)c2c1 | 
